Assay results from patent US9334314B2, “Peptide compounds derived from melanotransferrin and uses thereof” (Theratechnologies Inc., priority 2011, dated 2016).

What was measured:
[1] = tested on: in vivo neovascularisation induced by the growth factors FGF-2 and VEGF; test: Matrigel plug angiogenesis assay; settings: induced by FGF-2 and VEGF, nude mice, 7 days (FIG. 7)
Protocol: Angiogenesis is considered to be indicated by the growth of blood vessels from subcutaneous tissue into a solid piece of Matrigel™. Specific pathogen-free, female Crl:CD-1®-nuBR nude mice were obtained from Charles River Laboratories (Lasalle, QC). All of the mice used were 5-10 weeks of age. Prior to injection, heparin was incubated with or without bFGF (250 ng/mL) and VEGF165 (200 ng/mL) for 5 min, then 1 mL of MEM was added and the mixture diluted into phenol red-free Matrigel™ on ice for a final concentration of 12.4 μg/mL heparin. Then, specific pathogen-free, female Crl:CD-1®-nuBR nude mice were subcutaneously injected under anesthesia in the right flank with 0.5 mL of Matrigel™ alone or with Matrigel™ containing bFGF and VEGF. After 7 days, mice were sacrificed and Matrigel™ implants were harvested, washed with PBS and photographed. The remaining implants were immediately frozen and lyophilized overnight in order to evaluate the hemoglobin (Hb) concentrations. Testing of anti-angiogenic substances was initiated at the time of Matrigel™ implantation. Samples were then crushed and resuspended in 0.1% Triton™ X-100. Samples were mixed frequently for 1 h and centrifuged at 12,000×g for 15 min to remove particles. The concentration of hemoglobin (Hb) in the supernatant was then determined directly by measuring the absorbance at 405 nm and compared with a standard curve of purified Hb Hemoglobin content was expressed in μg Hb/mg of dried sample.

[2] = tested on: NCI-H460 pulmonary carcinoma cells; test: In vitro cell migration, NCI-H460 (Transwell / modified Boyden chambers); type: cell-based, human; settings: various concentrations, dose-dependent manner (FIG. 2D)
Protocol: (§1) HMEC-1 and NCI-H460 cell migration was performed using Transwell filters (8 μm pore size) pre-coated with 0.15% gelatin for 2 hours at 37° C. or overnight at 4° C. The Transwell filters were washed once with PBS and assembled in 24-well plates. To study the effect of sMTf-derived peptides on cell migration, the lower chambers were filled with 300 μL of serum-free cell culture medium with or without various concentrations of peptides (2×). […] Approximately 50 000 cells (HMEC-1) and 100 000 cells (NCI-H460) were resuspended in 100 μL of serum free medium and added into the upper chamber of each Transwell. Then, 400 μL of serum free medium were added into the lower chamber with or without various concentrations of peptides (2×). After 1 hour incubation, 300 μL of cell culture medium containing 20% serum were added in the lower chamber to stimulate cell migration (final peptide concentration 1×). The plates were then placed at 37° C. in 5% CO2195% air for 4 hours (HMEC-1) or 18 hours (NCI-H460). Cells that had migrated to the lower surface of the filters were fixed for 30 minutes with 10% formalin, stained 30 minutes with 0.1% crystal violet/20% MeOH, and washed twice with PBS. […] The cell migration was quantified in four fields per filters at 50× magnification using microscopy computer-assisted imaging (Northern Eclipse™ software). Results are expressed as a percentage of cell migration of treated cells compared to untreated cells.

HMEC-1 endothelial cells [3] = test: In vitro cell migration, HMEC-1 (Transwell / modified Boyden chambers); type: cell-based; settings: various concentrations, dose-dependent manner (FIG. 2C)
Protocol: as §1

[4] = tested on: Human U87 glioblastoma tumor xenograft; test: Xenograft model antitumor assay, U87; type: in vivo, nude mice; settings: 40 mg/Kg/day; for inhibition of U87 tumor growth: nude mice (FIG. 5B); for U87 tumor growth: nude mice (FIGS. 4A and 4B)
Protocol: (§2) For tumor cell inoculation in nude mice, U-87 MG or NCI-H460 cells were harvested by trypsinization using a trypsin/EDTA solution. Cells were washed two times with phosphate-buffered saline Ca^2+—Mg^2+ free (PBS-CMF) and centrifuged. The resulting pellet was resuspended in 1% methyl-cellulose in serum-free EMEM at a concentration of 2.5×10^6 cells per 100 μL. Specific pathogen-free, female Crl:CD-1®-nuBR nude mice were anesthetized by O2/isoflurane inhalation and tumors were established by subcutaneous injection of 100 μL from cell suspension into the right flank. Tumors were measured in O2/isoflurane anesthetized mice twice a week using a digital caliper and tumor volume was calculated as: π/6×length×width^2. When the first mouse from control group held a tumor reaching 1000 mm^3, tumors were photographed and mice from every group were sacrificed. Experiments were performed on 8 animals for each group. Recombinant sMTf treatment toxicity was evaluated by monitoring the body weight of control and treated mice, considering that a weight loss>20% results in a toxic effect.

[5] = tested on: Human NCI-H460 lung carcinoma tumor xenograft; test: Xenograft model antitumor assay, NCI-H460; type: in vivo, nude mice; settings: 40 mg/Kg/day; for inhibition of NCI-460 tumor growth: nude mice (FIG. 5A); for NCI-460 tumor growth: nude mice (FIGS. 3A to 3C)
Protocol: as §2

HMEC-1 endothelial cells [6] = settings: up to 50 μM, 24 hours incubation (FIG. 6)
Protocol: (§3) sMTf-derived peptides cellular toxicity on HMEC-1 and NCI-H460 were performed using [methyl-^3H]-thymidine incorporation assay. […] Approximately 5000 cells (HMEC-1 and NCI-H460) were resuspended with 200 μL of fresh culture medium, seeded into white 96-wells plate and placed at 37° C. in 5% CO2/95% air. After 24 hours, the medium was removed and 200 μL of serum-free cell culture medium was added to synchronize the cells. After another 24 hours, the medium was removed and 200 μL of fresh complete medium with or without various peptide concentrations were added. After 24 hours incubation with the peptides, the medium was remove and 200 μL (0.5 μCi) of [methyl-^3H]-thymidine was added and placed at 37° C. in 5% CO2/95% air for 4 hours. Then, the wells were gently washed twice with PBS at 37° C., incubated with 200 μL of EtOH:Acetic acid (3:1) for 10 minutes and dried under the hood. 50 μL of Microscint™-O was added per well, the plate was sealed, agitated for 3 minutes, and read on the microplate scintillation and luminescence counter (TopCount NXT, Packard). Results are expressed as a percentage of cell viability of treated cells compared to untreated cells.

[7] = tested on: NCI-H460 pulmonary carcinoma cells; settings: up to 50 μM, 24 hours incubation (FIG. 6)
Protocol: as §3

[8] = target: plasminogen activation by urokinase-type plasminogen activator (uPA) (Homo sapiens, UniProt P00749); test: In vitro plasminogen activation by uPA (colorimetric VLK-pNA assay); type: biochemical; settings: various concentrations of peptide (FIG. 1B)
Protocol: The in vitro enzymatic activity of uPA was measured using a colorimetric assay. To study the effect of sMTf-derived peptides on plasminogen activation by uPA, the reaction was performed in plasminogen activation buffer (50 mM Tris/HCl (pH 7.5), 150 mM NaCl and 50 mM CaCl2) in a final volume of 200 μL. This incubation medium also contained 30 nM plasminogen and 15 μg of the chromogenic plasmin substrate D-Val-Leu-Lys p-nitroanilide (VLK-pNA). The reaction was started by the addition of 1 ng of uPA. In this assay, the cleavage of VLK-pNA results in a p-nitroaniline molecule that absorbs at 405 nm. The reaction product was monitored at 37° C. during 3 hours every 2 minutes using a Microplate Thermomax™ Autoreader. The velocity of the VLK-pNA hydrolysis reaction was calculated and results are expressed in mAU/min.

Row | Substance | in vivo neovascularisation of Matrigel implant (hemoglobin content) [1] | migration of NCI-H460 cells [2] | migration of HMEC-1 cells (HMEC-1 endothelial cells [3]) | inhibition of U87 tumor growth [4] [%] | U87 tumor growth [4] | inhibition of NCI-460 tumor growth [5] [%] | NCI-460 tumor growth [5] | cellular toxicity on HMEC-1 cells (HMEC-1 endothelial cells [6]) | cellular toxicity on NCI-H460 cells [7] | plasminogen cleavage by uPA [8]
1 | Ac-F-R-C-L-V-E-N-R-G-D-V-P-F-V-K-R-E-R-F-NH2 (Ac-FRCLVENRGDVPFVKRERF-NH2) [SEQ ID NO: 13] | inhibit in vivo neovascularisation | inhibit the migration | inhibit the migration |  |  |  |  |  |  | 
2 | Ac-F-R-C-L-V-E-N-A-G-D-V-P-F-V-R-H-NH2 (Ac-FRCLVENAGDVPFVRH-NH2) [SEQ ID NO: 7] | inhibit in vivo neovascularisation |  |  |  |  |  |  |  |  | 
3 | Ac-F-R-C-L-V-E-N-A-G-D-V-A-F-V-R-H-K-K-K-NH2 (Ac-FRCLVENAGDVAFVRHKKK-NH2) [SEQ ID NO: 5] | inhibit in vivo neovascularisation |  |  | 39 | inhibit U87 tumor growth | 45 | inhibit NCI-460 tumor growth |  |  | 
4 | SEQ ID NO: 10: sMTf-derived peptide; sequence shown only as a drawing in Table II (FRCLVENAGDVAFVRHKKKKKKKHRVFAVDGANEVLCRF) |  |  |  |  |  | 69 | inhibit NCI-460 tumor growth |  |  | 
5 | Ac-YSGAFRMLAEGAGDVAFVKHKKK-NH2 (Ac-YSGAFRMLAEGAGDVAFVKHKKK-NH2) [SEQ ID NO: 9] | inhibit in vivo neovascularisation |  |  |  |  | 42 | inhibit NCI-460 tumor growth |  |  | 
6 | Ac-F-R-C-L-V-E-N-R-G-D-V-P-F-V-T-R-I-R-NH2 (Ac-FRCLVENRGDVPFVTRIR-NH2) [SEQ ID NO: 15] | inhibit in vivo neovascularisation | inhibit the migration | inhibit the migration | 74 | inhibit U87 tumor growth | 37 |  |  |  | 
7 | Ac-FRCLVENAGDVAFVRH-NH2 [SEQ ID NO: 2, Ac-F-R-C-L-V-E-N-A-G-D-V-A-F-V-R-H-NH2] |  | inhibit the migration | inhibit the migration |  |  |  |  | do not demonstrate any cellular toxicity | do not demonstrate any cellular toxicity | stimulates plasminogen cleavage by uPA in a dose-dependent manner
